The results in this text go back to US9403872B2 (priority 1999, dated 2016).

The subject of the experiment is human fibrosarcoma HT1080 cells. In kind it is cell-based.

As for `CNC(=O)[C@@H](NC(=O)[C@H](CC(C)C)[C@H](O)C(=O)NO)C(C)(C)C` [BB-2516, Marimastat], the “protection of HT1080 cells against WT-PA plus FP59” value is “did not protect”.

Take `CNC(=O)[C@H](Cc1c[nH]c2ccccc12)NC(=O)[C@@H](CC(=O)NO)CC(C)C` [GM6001]: the “protection of HT1080 cells against WT-PA plus FP59” value is on record as “did not protect”.
